The text below walks through data of US9408925B2, “Hyperpolarized lactate contrast agent for determination of LDH activity” (GE Healthcare Limited, priority 2010, dated 2016).

A short description of data set [1]: 13C T1 and T2 relaxation of non-polarized lactate samples (10 mM) at 9.4 T. It is filed as physicochemical. On the procedure: For FIG. 3, the samples contained 10 mM of either L-[1-^13C1, 2-^2H1] lactate or L-[1-^13C1] lactate (non-polarized). The T1 of the deuterated lactate was 55.8+/−2.2 s (n=1) and the T2 1.33+/−0.10 s (n=4) and the T1 of the C2 protonated lactate was 46.9+/−4.0 s (n=1) and the T2 1.49+/−0.13 s (n=2) (at 9.4 T). Heteronuclear ^13C/^1H double echo spectra were acquired using a 10 μs 90° ^13C pulse, a 5 ms adiabatic 180° ^13C pulse (bandwidth ˜2 kHz) and a 10 ms adiabatic ^1H pulse (bandwidth ˜1 kHz), which was centered on either the C2 or C3 lactate proton resonances (FIG. 2B). The TR was 20 s. Initial dummy scans produced a steady state z magnetization. The spectral bandwidth was 8 kHz and data were collected into 2048 complex points. Phase and amplitude corrected peak integrals for the lactate ^13C resonance were measured. The echo time is equivalent to 2τ.

The nature of data set [2]: T1 estimated from series of heteronuclear 13C/1H double echo spectra of hyperpolarized equimolar lactate mixture. The class given is physicochemical. Particulars: 10 mM, multiple double echo spectra (FIG. 6). The procedure:
L-[1-^13C1] lactate was hyperpolarized using the DMSO preparation described in (Chen, A. P., et al. Feasibility of using hyperpolarized [1-C-13] lactate as a substrate for in vivo metabolic C-13 MRSI studies. Magnetic Resonance Imaging 26, 721-726 (2008)) with added Gd^3+. Briefly, 70 mg of a ˜50% w/w sodium L-[1-^13C1] lactate solution (0.31 mmol) (Sigma Aldrich, Gillingham, UK) is added to 27 mg DMSO (0.36 mmol) (Sigma Aldrich, Gillingham, UK), 2 mg OX 63 radical (1.4 μmol)(GE Healthcare) and 2.7 mg of a 50 mmol/L solution of Dotarem Gd^3+ chelate (Guerbet, Roissy, France). For in vitro experiments, one third of the resulting solution is polarised to the maximum at the optimal microwave frequency. Once the polarisation is at a maximum, the dissolution is performed with 6 mL of a 40 mmol/L Tris based buffer (pH=7.6) with added 100 mg/L EDTA. The final concentration of hyperpolarised L-[1-^13C1] lactate is then approximately 17 mmol/L. Acquisition of hetero-nuclear ^13C/^1H double echo spectra (TE=300 ms), with and without a 180° ^1H pulse, gave the spectra shown in FIG. 4.
An equimolar mixture of L-[1-^13C1] lactate and L-[1-^13C1, 2-^2H1] lactate was prepared and polarized to ˜26+/−0.5% (n=2). The final lactate concentration in the NMR tube was 10 mM.
Spectra were acquired with and without the 180° ^1H pulse. […]

In data set [1], `[2H][C@@](C)(O)[13C](=O)O` [L-[1-^13C1,2-^2H1] lactate, L-[1-^13C, 2-^2H] Lactate] had a T1 of 55.8 ± 2.2 s and a T2 of 1.33 ± 0.10 s. Moreover, the “estimated T1” value in data set [2] is reported as 27 s.
In the same order, the values of `C[C@H](O)[13C](=O)[O-].[Na+]` [L-[1-^13C1] lactate, Sodium L-[1-^13C1] lactate] are 46.9 ± 4.0 s, 1.49 ± 0.13 s and 25 s.
